Converted amounts (≈) assume the structure as drawn. Where a SMILES comes first, the peptide text is derived from it. Bridges are numbered along the chain shown (N, C = ends).
Columns and labels:
[1] = molecular target: bovine trypsin (Bos taurus, UniProt P00760); test: biochemical; conditions: SEM
Method: The amidase activity of trypsin and its inhibition was assayed using the chromogenic substrate BAPNA at pH 8.2 in 0.05 M Tris-HCl containing 0.02 M CaCl2 at 37 °C. The assay reaction contained 50 µL of trypsin solution (40–50 μg of trypsin in 1 mM HCl), 50 µL of water, and 125 µL of the substrate. The reaction was carried out at 37 °C for 10 min and stopped by addition of 0.25 mL of 30% acetic acid. […] The trypsin solution was incubated with an aliquot of inhibitor for 10 min at 37 °C and reaction started by the addition of 125 µL substrate and incubated at 37 °C for 10 min. […] The effect of varying substrate concentration (BAPNA) on bovine trypsin in the presence of fixed concentrations of peptides was studied. The inhibition constants (Ki) were evaluated using the double reciprocal and Dixon plot of the data[65],[66]. Data presented are averages and standard error calculated from two biological replicate experiments.

[2] = tested on: Pectobacterium carotovorum MCC2112; conditions: microdilution broth, MH broth, 5 × 10^5 CFU/mL, 37 °C, 5–6 h, resazurin
Method: (§1) Four Gram-positive bacteria: Listeria monocytogenes ATCC13932, Bacillus cereus ATCC11778, Staphylococcus aureus ATCC12900, and Micrococcus luteus ATCC4698 and three Gram-negative bacteria: Escherichia coli ATCC11775, Pectobacterium carotovorum MCC2112, and Salmonella typhimurium ATCC9844 were used in this study. These strains were stored at −80 °C in 25% (v/v) glycerol.
(§2) Antimicrobial assays against various bacterial cultures were done using the microdilution broth assay according to the Clinical and Laboratory Standards Institute (CLSI)[64] with some modifications. Mueller-Hinton broth was used to dilute the peptide stock and the bacterial inoculum. Inoculum was prepared from the mid-logarithmic phase culture. Each well of the microtiter plates received aliquots of 100 µL of the media containing different concentrations of peptide ranging from 0.3 to 300 µg/mL. The final concentration of bacteria in the wells was 5 × 10^5 Colony Forming Units (CFU) per mL. Ampicillin was used as positive control. For negative control, ultrapure water was used instead of peptides. Microtiter plates were incubated at 37 °C for 5–6 h with continuous shaking at 130 rpm (M. luteus cells were incubated for 7–8 h). The incubation time used for these assays was initially optimized using a 20-h incubation period. […] MIC assays were performed as three independent experiments in triplicates.

[3] = tested on: Bacillus cereus ATCC11778; conditions: microdilution broth, MH broth, 5 × 10^5 CFU/mL, 37 °C, 5–6 h, resazurin
Method: as §1, §2

[4] = tested on: Micrococcus luteus ATCC4698; conditions: microdilution broth (CLSI, modified), Mueller-Hinton broth, 5 × 10^5 CFU/mL, 37 °C, 7–8 h, resazurin colour change; three independent experiments in triplicates
Method: as §1, §2

[5] = tested on: Staphylococcus aureus ATCC12900; conditions: microdilution broth, MH broth, 5 × 10^5 CFU/mL, 37 °C, 5–6 h, resazurin
Method: as §1, §2

[6] = tested on: Salmonella typhimurium ATCC9844; conditions: microdilution broth, MH broth, 5 × 10^5 CFU/mL, 37 °C, 5–6 h, resazurin
Method: as §1, §2

[7] = tested on: Listeria monocytogenes ATCC13932; conditions: microdilution broth, MH broth, 5 × 10^5 CFU/mL, 37 °C, 5–6 h, resazurin
Method: as §1, §2

[8] = tested on: Escherichia coli ATCC11775; conditions: microdilution broth, MH broth, 5 × 10^5 CFU/mL, 37 °C, 5–6 h, resazurin
Method: as §1, §2

bovine trypsin, sequence (P00760 24-246): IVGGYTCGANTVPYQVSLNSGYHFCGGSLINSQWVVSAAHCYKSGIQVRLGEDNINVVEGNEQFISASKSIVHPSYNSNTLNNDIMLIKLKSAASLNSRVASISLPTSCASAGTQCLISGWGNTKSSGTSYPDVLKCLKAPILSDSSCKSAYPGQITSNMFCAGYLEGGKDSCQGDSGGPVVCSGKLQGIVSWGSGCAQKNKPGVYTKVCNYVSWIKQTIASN

SMILES | Ki [1] [nM] | MIC Pectobacterium carotovorum [2] [µg/mL] | MIC Bacillus cereus [3] [µg/mL] | MIC (µg/mL) M. luteus [4] | MIC Staphylococcus aureus [5] [µg/mL] | MIC Salmonella typhimurium [6] [µg/mL] | MIC Listeria monocytogenes [7] [µg/mL] | MIC Escherichia coli [8] [µg/mL]
CC[C@H](C)[C@H](NC(=O)[C@@H](NC(=O)[C@@H](N)CO)C(C)C)C(=O)N[C@@H](Cc1ccccc1)C(=O)NCC(=O)N[C@H]1CSSC[C@@H](C(=O)N[C@@H](Cc2ccccc2)C(=O)N[C@H](C(=O)NCC(=O)N[C@@H](Cc2ccccc2)C(=O)O)C(C)C)NC(=O)[C@H]([C@@H](C)CC)NC(=O)[C@@H]2CCCN2C(=O)[C@@H]2CCCN2C(=O)[C@H]([C@@H](C)CC)NC(=O)[C@H](CO)NC(=O)[C@H](CCCCN)NC(=O)[C@H]([C@@H](C)O)NC1=O [HSEP2-∆K19] (H-SVIFGCTKSIPPICFVGF-OH; disulfide 6-14) | 440 | >150 | >150 | 25 µg/mL (≈ 13.1 µM) | >150 | >150 | >150 | >150
CC[C@H](C)[C@@H]1NC(=O)[C@@H]2CCCN2C(=O)[C@@H]2CCCN2C(=O)[C@H]([C@@H](C)CC)NC(=O)[C@H](CO)NC(=O)[C@H](CCCCN)NC(=O)[C@H]([C@@H](C)O)NC(=O)[C@@H]2CSSC[C@H](NC1=O)C(=O)N[C@@H](Cc1ccccc1)C(=O)N1CCC[C@H]1C(=O)N[C@@H](CC(=O)O)C(=O)NCC(=O)N[C@@H](CCCNC(=N)N)C(=O)N2 [SFTI-cyclic, reference compound] |  |  |  | no detectable inhibitory activity |  |  |  | 
CC[C@H](C)[C@H](NC(=O)[C@@H](NC(=O)[C@@H](N)CO)C(C)C)C(=O)NCC(=O)N[C@H]1CSSC[C@@H](C(=O)N[C@@H](Cc2ccccc2)C(=O)N[C@H](C(=O)N[C@@H](CCCCN)C(=O)O)C(C)C)NC(=O)[C@H]([C@@H](C)CC)NC(=O)[C@@H]2CCCN2C(=O)[C@@H]2CCCN2C(=O)[C@H]([C@@H](C)CC)NC(=O)[C@H](CO)NC(=O)[C@H](CCCCN)NC(=O)[C@H]([C@@H](C)O)NC1=O [HSEP1] (H-SVIGCTKSIPPICFVK-OH; disulfide 5-13) | 230 |  |  | 75 µg/mL (≈ 44.4 µM) |  |  |  | 
CC[C@H](C)[C@H](NC(=O)[C@@H](NC(=O)[C@@H](N)CO)C(C)C)C(=O)NCC(=O)N[C@H]1CSSC[C@@H](C(=O)N[C@@H](Cc2ccccc2)C(=O)N[C@H](C(=O)N[C@@H](CCCCN)C(=O)O)C(C)C)NC(=O)[C@@H]2CCCN2C(=O)[C@H](CCCNC(=N)N)NC(=O)[C@@H]2CCCN2C(=O)[C@@H]2CCCN2C(=O)[C@H]([C@@H](C)CC)NC(=O)[C@H](CO)NC(=O)[C@H](CCCCN)NC(=O)[C@H]([C@@H](C)O)NC(=O)[C@H](Cc2c[nH]c3ccccc23)NC1=O [HVBBI, reference compound] (H-SVIGCWTKSIPPRPCFVK-OH; disulfide 5-15) | 370 |  |  | 150 µg/mL (≈ 74.4 µM) |  |  |  | 
CC[C@H](C)[C@@H]1NC(=O)[C@@H]2CCCN2C(=O)[C@@H]2CCCN2C(=O)[C@H]([C@@H](C)CC)NC(=O)[C@H](CO)NC(=O)[C@H]([C@@H](C)O)NC(=O)[C@@H](NC(=O)[C@H](C)N)CSSC[C@@H](C(=O)NCC(=O)N[C@@H](CCCCN)C(=O)O)NC1=O [HSEP2-ΔHR-ΔK8] (H-ACTSIPPICGK-OH; disulfide 2-9) |  |  |  | >150 µg/mL |  |  |  | 

Source: article PMC8410836, “Rational design of hyperstable antibacterial peptides for food preservation” (NPJ Science of Food, 2021)
